Reference: PMC4544630, “Contribution of C-glucosidic ellagitannins to Lythrum salicaria L. influence on pro-inflammatory functions of human neutrophils” (Journal of Natural Medicines, 2014)

What was measured:
[1] = molecular target: T1, bovine testis hyaluronidase (Bos taurus, UniProt Q2YDK3); assay: Hyaluronidase activity, USP turbidimetric method modified; assay type: biochemical; conditions: for Hyaluronidase activity Mean(%): % of 100% active enzyme control
T1 construct: purchased Sigma–Aldrich GmbH (Steinheim, Germany); host or cells: bovine testis
T1 sequence (Q2YDK3 36-553): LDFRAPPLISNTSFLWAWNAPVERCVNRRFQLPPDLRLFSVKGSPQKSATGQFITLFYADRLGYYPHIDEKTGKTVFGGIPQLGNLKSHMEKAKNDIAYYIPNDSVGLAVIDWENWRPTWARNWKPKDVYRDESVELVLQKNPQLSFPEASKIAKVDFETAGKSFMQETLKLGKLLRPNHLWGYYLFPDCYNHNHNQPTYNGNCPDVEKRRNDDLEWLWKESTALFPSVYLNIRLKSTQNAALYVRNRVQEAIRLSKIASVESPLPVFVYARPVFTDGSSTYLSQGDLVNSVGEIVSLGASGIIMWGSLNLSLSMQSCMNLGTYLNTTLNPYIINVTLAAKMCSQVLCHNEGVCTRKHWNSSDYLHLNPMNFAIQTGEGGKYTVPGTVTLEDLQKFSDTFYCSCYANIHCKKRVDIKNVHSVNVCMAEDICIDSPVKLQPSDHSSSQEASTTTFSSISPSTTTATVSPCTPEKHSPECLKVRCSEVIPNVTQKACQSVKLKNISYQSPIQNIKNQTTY
Description: The […] flowering herb was collected from its natural habitat in Umer in the Świętokrzyskie region (Poland) in July 2011. Its identity was confirmed anatomically and morphologically based on its pharmacopoeial monograph in the Department of Pharmacognosy and Molecular Basis of Phytotherapy, Medical University of Warsaw, where the voucher specimen UMER2011 is deposited. […] […]), castalagin ([…] (SB) and […]. 1, 2) from […] performed according to Piwowarski and Kiss. […] Isolated ellagitannins were of >95 % purity (determined by the HPLC-DAD-CAD method). […] Gallic acid (>96 % purity) was purchased from ChromaDex (Santa Ana, USA). Propidium iodide was purchased from BD Biosciences (San Diego, CA, USA). All substances used were of >95 % purity. Phosphate-buffered saline (PBS) was purchased from Gibco (Carlsbad, CA, USA). The influence of extract and ellagitannins on hyaluronidase activity was measured using the USP turbidimetric method modified by Piwowarski et al. […] Heparin was used as a positive control.

[2] = system: elastase; assay: Elastase release from cytochalasin A/f-MLP-stimulated neutrophils (SAAVNA substrate); assay type: cell-based, human; conditions: for Elastase release Mean(%): % of stimulated control; for activity on elastase release: tested concentrations (1, 5, 20 μM)
Description: (§1) Peripheral venous blood was taken from healthy human donors (20–35 years old) in the Warsaw Blood Donation Centre. […] The study conformed to the principles of the Declaration of Helsinki. Neutrophils were isolated using a standard method of dextran sedimentation prior to hypotonic lysis of erythrocytes and to centrifugation in a Ficoll Hypaque gradient. The purity of neutrophil preparations was >97 %, and viability measured by trypan blue exclusion was >98 %. Neutrophils were then resuspended in appropriate medium to perform the selected assay.
Neutrophil elastase release was determined using SAAVNA as a substrate, and […] was measured spectrophotometrically. 100 μL of cell suspension (5 × 10^5/mL) in HBSS was preincubated with 50 μL of compound or extract solution (final concentrations of 1, 5 and 20 μM or μg/mL) for 15 min at 37 °C and then stimulated with 50 μL of cytochalasin A (5 μg/mL) and f-MLP (0.1 μg/mL) for 15 min. The neutrophils were centrifuged (2000 rpm; 10 min; 4 °C). After the addition of 50 μL of SAAVNA solution (1.6 mg/mL) to 100 μL of supernatant, the extent of […] was measured spectrophotometrically for 1 h at intervals of 20 min, at 412 nm using a microplate reader (BioTek). According to Kanashiro et al., quercetin was used as a positive control.

[3] = system: ethanol-induced gastric lesions; design: method as in PMID 12590500; conditions: mouse; orally 50 mg/kg b.w.; cited from earlier work
[4] = system: ROS; assay: ROS release from PMA-stimulated neutrophils, lucigenin chemiluminescence; assay type: cell-based, human; conditions: PMA + lucygenin, % of stimulated control
Description: as §1
(§2) Generation of oxidants by f-MLP or PMA-stimulated neutrophils was measured using luminol- or lucigenin-dependent chemiluminescence tests. 70 μL of cell suspension (2 × 10^5/mL) in HBSS was incubated with 50 μL of compound or extract solution (final concentrations of 1, 5 and 20 μM or μg/mL) together with 50 μL of luminol (100 μM) or lucigenin (200 μM) solution. ROS production was initiated by the addition of 30 μL of f-MLP (0.1 μg/mL) or PMA (1 μg/mL). Changes in chemiluminescence at 37 °C were measured immediately for 45 min at intervals of 2 min in a microplate reader (Biotek). Ascorbic acid was used as a positive control.

[5] = system: IL-8; assay: IL-8 production by LPS-stimulated neutrophils (ELISA); assay type: cell-based, human; conditions: LPS 100 ng/mL, 24 h, % of stimulated control
Description: as §1
(§3) Neutrophils (2 × 10^5/mL) were cultured in 24-well plates in RPMI 1640 medium with 10 % FBS, 10 mM HEPES, and 2 mM L-glutamine in the absence or presence of LPS (100 ng/mL) for 24 h at 37 °C with 5 % CO2 in the absence or presence of extract at concentrations of 1, 5 and 20 μg/mL, and compounds at concentrations of 1, 5 and 20 μM were added to 1 mL of cell suspension 1 h before the stimuli. After 24 h, the neutrophils were harvested and centrifuged (2000 RPM; 10 min; 4 °C). The amount of IL-8 or MMP-9 released into cell supernatants was measured by enzyme-linked immunosorbent assay (ELISA) following the manufacturer’s instructions (R&D Systems, Minneapolis, MN, USA). PBS was used as a non-stimulated control. Curcumin was used as a positive control, according to Aggarwal and Harikumar and Antoine et al..

[6] = system: MMP-9; assay: MMP-9 production by LPS-stimulated neutrophils (ELISA); assay type: cell-based, human; conditions: LPS 100 ng/mL, 24 h, % of stimulated control
Description: as §1, §3

[7] = system: MPO; assay: MPO release from cytochalasin A/f-MLP-stimulated neutrophils (TMB substrate); assay type: cell-based, human; conditions: for MPO release Mean(%): cytochalasin A/f-MLP, % of stimulated control; for activity on MPO release: all tested concentrations (1, 5, 20 μM)
Description: Peripheral venous blood was taken from healthy human donors (20-35 years old) in the Warsaw Blood Donation Centre. […] The study conformed to the principles of the Declaration of Helsinki. Neutrophils were isolated using a standard method of dextran sedimentation prior to hypotonic lysis of erythrocytes and to centrifugation in a Ficoll Hypaque gradient. The purity of neutrophil preparations was >97 %, and viability measured by trypan blue exclusion was >98 %. Neutrophils were then resuspended in appropriate medium to perform the selected assay. Neutrophil MPO release was determined using TMB as a substrate. […] After centrifugation (2000 rpm; 10 min; 4 °C), 100 μL of supernatant was incubated with 50 μL of the TMB liquid substrate system. The reaction was terminated after 20 min by the addition of 2 M hydrochloric acid. The absorbance was measured at […] using a microplate reader (BioTek). Gallic acid was used as a positive control, according to Kroes et al..

[8] = system: ROS; assay: ROS release from f-MLP-stimulated neutrophils, luminol chemiluminescence; assay type: cell-based, human; conditions: % of stimulated control
Description: as §1, §2

IC50 [1] [µM] | Hyaluronidase activity Mean(%) ([1]; 1 μM) | Hyaluronidase activity Mean(%) ([1]; 2 μM) | Hyaluronidase activity Mean(%) ([1]; 5 μM) | Hyaluronidase activity Mean(%) ([1]; 20 μM) | Compound | Elastase release Mean(%) ([2]; 1 μM) | Elastase release Mean(%) ([2]; 5 μM) | Elastase release Mean(%) ([2]; 20 μM) | ROS release Mean(%) ([4]; 1 μM) | ROS release Mean(%) ([4]; 5 μM) | ROS release Mean(%) ([4]; 20 μM) | IL-8 production Mean (%) ([5]; 1 μM) | IL-8 production Mean (%) ([5]; 5 μM) | IL-8 production Mean (%) ([5]; 20 μM) | MMP-9 production Mean (%) ([6]; 1 μM) | MMP-9 production Mean (%) ([6]; 5 μM) | MMP-9 production Mean (%) ([6]; 20 μM) | MPO release Mean(%) ([7]; 1 μM) | MPO release Mean(%) ([7]; 5 μM) | MPO release Mean(%) ([7]; 20 μM) | also measured
3.1 ± 0.2 | 87,07% | 73,08% | 19,92% | 3,13% | O=C1OC[C@H]2OC(=O)c3cc(O)c(O)c(O)c3-c3c(O)c(O)c(O)c4c3C(=O)O[C@H]([C@H]3OC(=O)c5c-4c(O)c(O)c(O)c5[C@H]3O)[C@@H]2OC(=O)c2cc(O)c(O)c(O)c2-c2c1cc(O)c(O)c2O [C, castalagin] | 96,55% | 102,40% | 105,22% | 79,28% | 60,48% | 37,00% | 92,43% | 75,24% | 70,24% | 92,70% | 88,18% | 96,42% | 75,53% | 56,44% | 29,85% | activity on elastase release [2]: completely inactive; reduction of ethanol-induced gastric lesions [3]: very potent in the reduction of ethanol-induced gastric lesions; activity on MPO release [7]: expressed inhibitory activity at all tested concentrations; ROS release Mean(%) ([8]; 1 μM): 62,41%; ROS release Mean(%) ([8]; 5 μM): 40,10%; ROS release Mean(%) ([8]; 20 μM): 29,55%
1.6 ± 0.2 | 70,96% | 34,62% | -0,07% | 0,50% | O=C(OC1COC(=O)c2cc(O)c(O)c(O)c2-c2c(cc(O)c(O)c2O)C(=O)OC1C1OC(=O)c2cc(O)c(O)c(O)c2-c2c(O)c(O)c(O)c3c2C(=O)OC1C3O)c1cc(O)c(O)c(O)c1Oc1cc2c(c(O)c1O)-c1c(cc(O)c(O)c1O)C(=O)OCC1OC(=O)c3cc(O)c(O)c(O)c3-c3c(O)c(O)c(O)c4c3C(=O)OC(C1OC2=O)C1OC(=O)c2c-4c(O)c(O)c(O)c2C1O (centres unmarked) [SB, salicarinin B] | 82,54% | 65,03% | 38,16% | 64,77% | 36,09% | 13,06% | 107,98% | 78,12% | 59,17% | 99,56% | 95,83% | 78,81% | 67,99% | 49,60% | 2,93% | ROS release Mean(%) ([8]; 1 μM): 61,64%; ROS release Mean(%) ([8]; 5 μM): 28,73%; ROS release Mean(%) ([8]; 20 μM): 16,39%
3.1 ± 0.2 | 88,10% | 68,10% | 18,39% | 5,10% | O=C1OCC2OC(=O)c3cc(O)c(O)c(O)c3-c3c(O)c(O)c(O)c4c3C(=O)OC(C2OC(=O)c2cc(O)c(O)c(O)c2-c2c1cc(O)c(O)c2O)C1OC(=O)c2c-4c(O)c(O)c(O)c2C1O (centres unmarked) [V, vescalagin] | 102,25% | 104,61% | 102,89% | 66,84% | 50,90% | 28,93% | 98,64% | 80,63% | 71,68% | 85,96% | 99,57% | 89,91% | 81,67% | 65,70% | 41,17% | activity on elastase release [2]: completely inactive; activity on MPO release [7]: expressed inhibitory activity at all tested concentrations; ROS release Mean(%) ([8]; 1 μM): 63,47%; ROS release Mean(%) ([8]; 5 μM): 46,61%; ROS release Mean(%) ([8]; 20 μM): 30,13%
